Measurements taken from PMC9181543, “Lysosomal Exocytosis of Olivacine on the Way to Explain Drug Resistance in Cancer Cells” (International Journal of Molecular Sciences, 2022).
Where “and” joins values, the source holds several entries; their conditions need not be identical. Equal entries are not always repeated. Where two headings read alike, the source gives them in different places.

What was measured:
MCF-7 cells [1] = test system: MCF-7 cells; design: method as in PMID 11755121; conditions: 48 h exposure; cited from earlier work
MCF-7 cells [2] = test system: MCF-7 cells; design: method as in PMID 15896464; conditions: cited from earlier work
Saos-2 cells = test system: Saos-2 cells; design: method as in PMID 12881704; conditions: cited from earlier work
pancreatic cancer cells = test system: pancreatic cancer cells; design: method as in PMID 10737712; conditions: 1 μM; cited from earlier work
MV4–11 cells = test system: MV4–11 cells; design: method as in PMID 25107543; conditions: 5 μM; cited from earlier work
[3] = test system: A549, MCF-7, LoVo, LoVo/DX, CCRF/CEM, and NHDF cells; assay: MTT assay, whole cell line panel; assay type: cell-based; conditions: Homo sapiens, range across all cell lines, read-out: IC50 range over the cell lines
Description: The anticancer activity of tested compounds was assessed on five human cell lines selected from the panel of tumor cell lines recommended by the National Cancer Institute: A495 (lung carcinoma), CCRF/CEM (acute lymphoblastic leukemia), LoVo and LoVo/DX (two types of colorectal: non-resistant and resistant to doxorubicin), and MCF-7 (breast adenocarcinoma). In addition, the NHDF cell line (normal human dermal fibroblasts) was used to estimate cytotoxicity to noncancer cells. The A549, CCRF/CEM, LoVo, LoVo/DX, and MCF-7 cells were obtained from ECACC, and NHDF cells from LONZA, Belgium. The A549 and MCF-7 cells were grown in EMEM medium, CCRF/CEM cells in RPMI-1640, LoVo and LoVo/DX cells in DMEM/F-12, and NHDF cells in DMEM without phenol red. The cells were seeded in […] in the biological assay, as recommended by the National Cancer Institute. All culture media were supplemented with L-glutamine, penicillin, streptomycin, and 10% fetal bovine serum (FBS). […]
An assessment of the mitochondrial cell activity after applying tested compounds was carried out using the test MTT assay, recommended in the ISO 10993-5:2009 standard. […] After 30 min, absorbance at 570 nm in Victor2 microplate reader (PerkinElmer). Cell viability was determined as the IC50 ratio, i.e., the concentration of the compound in which the viability was reduced by half compared with the control.

A549 cells = assay: Cell morphology, microscopic observation, A549; assay type: cell-based, human; conditions: for cell morphology: 24 h incubation
Description: Olivacine, similar to ellipticine, is a compound with fluorescent properties. Therefore, by analyzing the intensity of fluorescence over time, it is possible to assess the cellular pharmacokinetics of the compounds. At the same time, cell morphology was also assessed. The cells were seeded into a 96-well plate and cultured for 24 h (37 °C, 5% CO2) for cell adhesion to the surface and regeneration. […] The culture plate was placed under a Juli microscope, and the device with the plate inside was put in the CO2 incubator. Pictures were taken every 15 min for 24 h. We have prepared software that allowed us to measure the fluorescence intensity of the indicated cells. Fluorescence analysis was performed for all images (every 15 min) during a period of rapid change in fluorescence intensity and less often at a later period when it stabilized. Three independent experiments were carried out, always analyzing 50 selected cells.

IC50 [3] [µM]	SMILES	IC50 (MCF-7 cells [1]) [nM]	IC50 (MCF-7 cells [2]) [nM]	concentration at which apoptosis was induced (Saos-2 cells)	cell cycle effect (pancreatic cancer cells)	cell cycle effect (MV4–11 cells)	cell morphology (A549 cells; 2 μM)	cell morphology (A549 cells; 20 μM)	concentration at which growth inhibition is visible (A549 cells; microscopic observation, 24 h) [µM]
	Cc1c2ccncc2c(C)c2c1[nH]c1ccccc12 [Ellipticine]	1250 ± 130	1520	8 µM and 10 µM	arrest cell cycle progression in both G1 and G2/M phases	arrest of the cell cycle at the G2/M checkpoint			
12 to 26	Cc1nccc2c(C)c3[nH]c4ccccc4c3cc12 [Olivacine, 1,5-dimethyl-6H-pyrido[4,3-b]carbazole]						Cytosol degradation	completely degraded	2
